# Experimental data from patent US9315491B2 (DEVELOPMENT CENTER FOR BIOTECHNOLOGY, priority 2009, dated 2016).
# Molecular target: recombinant mTOR (Homo sapiens (Human), UniProt P42345)
# Assay: mTOR kinase assay (33P incorporation into 4EBP1)
# Assay type: biochemical
# Conditions: compound at 10 μM, 10 μM ATP
# How it was run: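 Recombinant human mTOR (50 ng) phosphorylated His-tagged 4EBP1 (300 ng) with 10 μM ATP plus [γ-33P]-ATP in HEPES pH 7.5, MnCl2, EGTA and DTT for 30 min at 30° C. Labelled 4EBP1 was filter-captured and counted. IC50 was derived from eight-point duplicate dilution series.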
# recombinant mTOR, sequence (P42345 1360-2549): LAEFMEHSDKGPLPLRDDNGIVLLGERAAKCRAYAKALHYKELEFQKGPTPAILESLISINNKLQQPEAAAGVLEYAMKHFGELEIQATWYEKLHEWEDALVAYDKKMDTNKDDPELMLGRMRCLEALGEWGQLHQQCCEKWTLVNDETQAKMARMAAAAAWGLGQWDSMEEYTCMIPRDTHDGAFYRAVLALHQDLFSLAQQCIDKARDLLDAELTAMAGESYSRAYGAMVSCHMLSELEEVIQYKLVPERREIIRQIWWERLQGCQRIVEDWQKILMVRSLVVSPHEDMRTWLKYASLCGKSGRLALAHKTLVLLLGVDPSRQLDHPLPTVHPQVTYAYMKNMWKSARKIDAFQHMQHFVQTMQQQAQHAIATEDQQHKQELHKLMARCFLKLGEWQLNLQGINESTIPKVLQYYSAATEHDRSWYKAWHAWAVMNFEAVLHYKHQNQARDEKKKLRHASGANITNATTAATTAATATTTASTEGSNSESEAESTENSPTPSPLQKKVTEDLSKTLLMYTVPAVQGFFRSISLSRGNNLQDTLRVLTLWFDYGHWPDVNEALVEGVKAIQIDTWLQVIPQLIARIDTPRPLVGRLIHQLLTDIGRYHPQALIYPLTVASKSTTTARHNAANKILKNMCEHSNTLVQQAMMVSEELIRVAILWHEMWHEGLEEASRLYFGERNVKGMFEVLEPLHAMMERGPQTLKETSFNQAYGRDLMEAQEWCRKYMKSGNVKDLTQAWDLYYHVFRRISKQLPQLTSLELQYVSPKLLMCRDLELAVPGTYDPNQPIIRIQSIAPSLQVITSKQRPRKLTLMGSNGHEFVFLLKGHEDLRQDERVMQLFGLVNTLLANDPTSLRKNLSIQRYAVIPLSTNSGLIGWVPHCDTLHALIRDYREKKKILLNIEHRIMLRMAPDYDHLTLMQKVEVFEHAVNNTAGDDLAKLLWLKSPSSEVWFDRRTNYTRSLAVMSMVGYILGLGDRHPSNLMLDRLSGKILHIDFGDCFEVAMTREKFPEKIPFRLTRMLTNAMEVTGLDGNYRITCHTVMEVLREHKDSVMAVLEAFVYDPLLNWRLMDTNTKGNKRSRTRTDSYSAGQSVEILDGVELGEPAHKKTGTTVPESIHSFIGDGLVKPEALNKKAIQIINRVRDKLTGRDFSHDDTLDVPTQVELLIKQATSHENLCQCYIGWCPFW
row,Compound,inhibition at 10 µM
1,"CSc1c(-c2ccncc2)nc(-c2ccc(NC(=O)Nc3ccon3)cc2)nc1N1CCOCC1 [MTR-0485, 1-Isoxazol-3-yl-3-[4-(5-methylsulfanyl-4-morpholin-4-yl-6-pyridin-4-yl-pyrimidin-2-yl)-phenyl]-urea]",100%
2,"COc1cnc(-c2ccc(NC(=O)Nc3ccc(NC(C)=O)nc3)cc2)nc1N1CCOCC1 [MTR-0486, N-(5-{3-[4-(5-Methoxy-4-morpholin-4-yl-pyrimidin-2-yl)-phenyl]-ureido}-pyridin-2-yl)-acetamide]",88%

# Next, values leading:
row,inhibition at 10 µM,Compound
1,102%,"CCOc1c(-c2cccnc2)nc(-c2ccc(NC(=O)Nc3ccncc3)cc2)nc1N1CCOCC1 [MTR-0490, 1-[4-(5-Ethoxy-4-morpholin-4-yl-6-pyridin-3-yl-pyrimidin-2-yl)-phenyl]-3-pyridin-4-yl-urea]"
2,100%,"CCOc1c(-c2cccnc2)nc(-c2ccc(NC(=O)Nc3cccnc3)cc2)nc1N1CCOCC1 [MTR-0491, 1-[4-(5-Ethoxy-4-morpholin-4-yl-6-pyridin-3-yl-pyrimidin-2-yl)-phenyl]-3-pyridin-3-yl-urea]"
3,100%,"CCOc1c(-c2ccncc2)nc(-c2ccc(NC(=O)Nc3ccncc3)cc2)nc1N1CCOCC1 [MTR-0492, 1-[4-(5-Ethoxy-4-morpholin-4-yl-6-pyridin-4-yl-pyrimidin-2-yl)-phenyl]-3-pyridin-4-yl-urea]"
4,99%,"CCOc1c(-c2ccncc2)nc(-c2ccc(NC(=O)Nc3cccnc3)cc2)nc1N1CCOCC1 [MTR-0493, 1-[4-(5-Ethoxy-4-morpholin-4-yl-6-pyridin-4-yl-pyrimidin-2-yl)-phenyl]-3-pyridin-3-yl-urea]"
5,86%,"CCOc1c(Cl)nc(-c2ccc(NC(=O)Nc3ccc(N4CCOCC4=O)cc3)cc2)nc1N1CCOCC1 [MTR-0494, 1-[4-(4-Chloro-5-ethoxy-6-morpholin-4-yl-pyrimidin-2-yl)-phenyl]-3-[4-(3-oxo-morpholin-4-yl)-phenyl]-urea]"
6,100%,"CCOc1c(-c2ccncc2)nc(-c2ccc(NC(=O)Nc3ccc(N4CCOCC4=O)cc3)cc2)nc1N1CCOCC1 [MTR-0495, 1-[4-(5-Ethoxy-4-morpholin-4-yl-6-pyridin-4-yl-pyrimidin-2-yl)-phenyl]-3-[4-(3-oxo-morpholin-4-yl)-phenyl]-urea]"
7,95%,"CCOc1c(-c2cccnc2)nc(-c2ccc(NC(=O)Nc3ccc(N4CCOCC4=O)cc3)cc2)nc1N1CCOCC1 [MTR-0496, 1-[4-(5-Ethoxy-4-morpholin-4-yl-6-pyridin-3-yl-pyrimidin-2-yl)-phenyl]-3-[4-(3-oxo-morpholin-4-yl)-phenyl]-urea]"

# Molecular target: PI3K (p110α/p85α) (Homo sapiens (Human), UniProt P42336)
# Sequence (P42336 whole entry, species assumed): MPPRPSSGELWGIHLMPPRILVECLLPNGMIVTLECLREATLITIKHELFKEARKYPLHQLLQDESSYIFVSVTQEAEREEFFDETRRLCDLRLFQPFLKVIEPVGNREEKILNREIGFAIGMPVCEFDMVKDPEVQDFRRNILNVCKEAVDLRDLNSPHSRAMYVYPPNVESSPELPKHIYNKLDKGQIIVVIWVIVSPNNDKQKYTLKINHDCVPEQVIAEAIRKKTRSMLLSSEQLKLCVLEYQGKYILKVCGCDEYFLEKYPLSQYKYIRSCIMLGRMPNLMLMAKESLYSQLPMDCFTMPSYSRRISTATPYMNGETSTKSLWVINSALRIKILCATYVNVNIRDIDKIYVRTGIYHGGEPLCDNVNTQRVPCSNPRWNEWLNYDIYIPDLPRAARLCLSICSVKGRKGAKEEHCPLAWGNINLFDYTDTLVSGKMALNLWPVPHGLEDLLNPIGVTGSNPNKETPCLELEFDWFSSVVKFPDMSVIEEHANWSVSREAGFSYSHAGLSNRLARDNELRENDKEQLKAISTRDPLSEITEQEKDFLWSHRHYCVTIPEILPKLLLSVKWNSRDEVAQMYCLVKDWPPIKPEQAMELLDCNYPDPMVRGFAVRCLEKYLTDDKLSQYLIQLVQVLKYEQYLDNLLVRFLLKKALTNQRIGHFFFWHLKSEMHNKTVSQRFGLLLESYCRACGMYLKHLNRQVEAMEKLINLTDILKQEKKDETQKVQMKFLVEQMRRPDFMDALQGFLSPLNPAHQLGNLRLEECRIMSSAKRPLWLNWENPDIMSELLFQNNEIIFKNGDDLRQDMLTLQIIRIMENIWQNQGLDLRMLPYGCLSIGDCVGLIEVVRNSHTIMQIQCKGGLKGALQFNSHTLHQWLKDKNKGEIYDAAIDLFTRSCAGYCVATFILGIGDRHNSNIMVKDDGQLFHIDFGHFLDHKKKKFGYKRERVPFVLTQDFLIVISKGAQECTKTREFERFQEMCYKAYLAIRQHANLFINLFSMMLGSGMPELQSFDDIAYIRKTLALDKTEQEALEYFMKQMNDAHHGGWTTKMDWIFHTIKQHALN
# Sequence (P27986 whole entry partner, species assumed): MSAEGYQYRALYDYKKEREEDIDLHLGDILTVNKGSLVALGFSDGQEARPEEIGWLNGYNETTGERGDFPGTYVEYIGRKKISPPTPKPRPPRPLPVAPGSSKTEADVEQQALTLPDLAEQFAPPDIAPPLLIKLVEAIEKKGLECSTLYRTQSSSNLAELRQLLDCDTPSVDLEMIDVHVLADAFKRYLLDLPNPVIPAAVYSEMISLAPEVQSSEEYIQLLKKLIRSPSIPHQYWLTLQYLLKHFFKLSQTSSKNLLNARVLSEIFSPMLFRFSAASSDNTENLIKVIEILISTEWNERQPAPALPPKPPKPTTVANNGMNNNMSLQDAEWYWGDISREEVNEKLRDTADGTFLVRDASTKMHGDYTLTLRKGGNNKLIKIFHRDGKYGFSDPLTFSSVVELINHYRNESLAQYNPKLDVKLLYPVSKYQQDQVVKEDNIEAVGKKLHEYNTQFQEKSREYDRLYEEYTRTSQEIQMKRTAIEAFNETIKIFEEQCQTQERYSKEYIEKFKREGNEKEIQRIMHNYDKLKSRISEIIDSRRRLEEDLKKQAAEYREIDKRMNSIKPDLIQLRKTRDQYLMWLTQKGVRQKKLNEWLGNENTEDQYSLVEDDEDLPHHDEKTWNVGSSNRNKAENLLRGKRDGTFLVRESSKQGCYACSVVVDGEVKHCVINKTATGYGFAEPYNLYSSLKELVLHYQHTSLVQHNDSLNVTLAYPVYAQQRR
# Assay: PI3K HTRF enzyme assay, p110α/p85α
# Assay type: biochemical
# Conditions: read-out: % inhibition @ 500 nM p110α; compound at 500 nM, 10 μM ATP
# Experimental: Recombinant PI3K (p110α/p85α) and PI3K (p110β/p85α) were from Millipore. […] Briefly, the compounds of interest dissolved in 100% DMSO were dispensed in all wells, following which the mixture of PIP2 and enzyme was added. PI3K (p110α/p85α) and PI3K (p110β/p85α) enzyme reactions were initiated in the presence of 10 μM and 100 μM ATP, respectively, and incubated for 30 min at room temperature. STOP solution prepared 2 hours prior to use was added to stop reactions, and mixed well. Detection solution prepared 2 hours prior to use was added, and incubated at room temperature for 17 hours in the dark. […] HTRF ration was calculated as follows: […]
row,inhibition at 0.5 µM,Compound
1,53.8%,"CCOC(=O)c1nc(-c2ccc(NC(=O)Nc3ccccc3)cc2)nc(N2CCOCC2)c1OCC [MTR-0069, 5-Ethoxy-6-morpholin-4-yl-2-[4-(3-phenyl-ureido)-phenyl]-pyrimidine-4-carboxylic acid ethyl ester]"
2,44.8%,"CSc1c(Cl)nc(-c2ccc(NC(N)=O)cc2)nc1N1CCOCC1 [MTR-0083, [4-(4-Chloro-5-methylsulfanyl-6-morpholin-4-yl-pyrimidin-2-yl)-phenyl]-urea]"
3,49.1%,"CCOc1c(C(=O)N2CCOCC2)nc(-c2ccc(NC(=O)Nc3ccccc3)cc2)nc1N1CCOCC1 [MTR-0124, 1-{4-[5-Ethoxy-4-(morpholine-4-carbonyl)-6-morpholin-4-yl-pyrimidin-2-yl]-phenyl}-3-phenyl-urea]"
4,85.8%,"COc1cnc(-c2ccc(NC(=O)Nc3ccccc3)cc2)nc1N1CCOCC1 [MTR-0128, 1-[4-(5-Methoxy-4-morpholin-4-yl-pyrimidin-2-yl)-phenyl]-3-phenyl-urea]"
5,83%,"COc1cnc(-c2ccc(NC(=O)Nc3ccc(F)cc3)cc2)nc1N1CCOCC1 [MTR-0152, 1-(4-Fluoro-phenyl)-3-[4-(5-methoxy-4-morpholin-4-yl-pyrimidin-2-yl)-phenyl]-urea]"
6,101%,"COc1cnc(-c2ccc(NC(=O)Nc3ccc(F)c(F)c3)cc2)nc1N1CCOCC1 [MTR-0165, 1-(3,4-Difluoro-phenyl)-3-[4-(5-methoxy-4-morpholin-4-yl-pyrimidin-2-yl)-phenyl]-urea]"
